From the C3SDB collision cross section collection

Columns and labels:
[1] = instrument: DT, stepped-field
[2] = instrument: TW, calibrated with polyalanine
[3] = instrument: DT, single field, calibrated with Agilent tune mix (Agilent)
[4] = instrument: DT, stepped-field; remark: listed apart in the source
[5] = instrument: TW, calibrated with polyalanine; remark: listed apart in the source

## NC(CCS)C(=O)O (racemic) [DL-Homocysteine]
[1]; [M+H]+
  collision cross section (N2): 130.78 Å²

## COc1cc2c(c3oc(=O)c4c(c13)CCOC4=O)[C@@H]1CCO[C@@H]1O2 [Aflatoxin G2]
[2]; [M+H]+
  collision cross section (N2): 166 Å²
[2]; [M+K]+
  collision cross section (N2): 181 Å²
[2]; [M+Na]+
  collision cross section (N2): 176.4 Å²

## CN1CC(=O)N=C1N [Creatinine]
[3]; [M+H]+
  collision cross section (N2): 123.4 Å²
[3]; [M-H]-
  collision cross section (N2): 116.68 Å²
[4]; [M+H]+
  collision cross section (N2): 123.93 Å²
[4]; [M+Na]+
  collision cross section (N2): 133.41 Å²
[1]; [M+H]+
  collision cross section (N2): 123.87 Å²
[1]; [M+Na]+
  collision cross section (N2): 132.99 Å²
[1]; [M-H]-
  collision cross section (N2): 120.7 Å²

## CC(=O)OC[C@]12CCC(C)=C[C@H]1O[C@@H]1[C@H](O)[C@@H](OC(C)=O)[C@@]2(C)[C@@]12CO2 [Diacetoxyscirpenol]
[2]; [M+NH4]+
  collision cross section (N2): 192 Å²

## CCC(C)[C@H](NC(=O)[C@H](CC(C)C)NC(=O)[C@H](CC(=O)O)NC(=O)[C@@H](N)CCC(=O)O)C(=O)N[C@@H](C)C(=O)N[C@@H](Cc1ccc(O)cc1)C(=O)N[C@@H](CC(C)C)C(=O)N[C@@H](CCCCN)C(=O)O (some centres undefined) [EDLIAYLK]
[1]; [M+2H]2+
  collision cross section (N2): 340.98 Å²
[1]; [M+H]+
  collision cross section (N2): 307.47 Å²

## CC[C@H](C)[C@H]1C(=O)O[C@H](C(C)C)C(=O)N(C)[C@@H](C(C)C)C(=O)O[C@H](C(C)C)C(=O)N(C)[C@@H](C(C)C)C(=O)O[C@H](C(C)C)C(=O)N1C [Enniatin B1]
[2]; [M+H]+
  collision cross section (N2): 246.4 Å²
[2]; [M+K]+
  collision cross section (N2): 254.7 Å²
[2]; [M+NH4]+
  collision cross section (N2): 253 Å²
[2]; [M+Na]+
  collision cross section (N2): 253.4 Å²

## CNC[C@H](O)c1ccc(O)c(O)c1 [Epinephrine]
[3]; [M+H-H2O]+
  collision cross section (N2): 138.3 Å²
[3]; [M-H]-
  collision cross section (N2): 137.87 Å²
[5]; [M+H]+
  collision cross section (N2): 133 Å²

## CC(=O)O[C@@H]1[C@@H](O)[C@H]2O[C@@H]3C=C(C)C(=O)[C@@H](O)[C@]3(CO)[C@]1(C)[C@]21CO1 [Fusarenon X]
[2]; [M+H3C2O2]-
  collision cross section (N2): 195 Å²

## N[C@H]1[C@@H](OP(=O)(O)O)O[C@H](CO)[C@@H](O)[C@@H]1O [Glucosamine 1-phosphate]
[3]; [M+Na]+
  collision cross section (N2): 158.5 Å²
[5]; [M+H]+
  collision cross section (N2): 153 Å²

## N[C@H]1C(O)O[C@H](CO)[C@@H](O)[C@@H]1O (some centres undefined) [Glucosamine]
[3]; [M+H-H2O]+
  collision cross section (N2): 132.9 Å²
[5]; [M+H]+
  collision cross section (N2): 135 Å²

## C[C@]12CCC(=O)C=C1CC[C@@H]1[C@@H]2[C@@H](O)C[C@@]2(C)[C@H]1CC[C@]2(O)C(=O)CO [Hydrocortisone]
[3]; [M-H2O-H]-
  collision cross section (N2): 182.99 Å²
[1]; [M+H]+
  collision cross section (N2): 189.27 Å²
[1]; [M+Na]+
  collision cross section (N2): 213.72 Å²

## CCC(C)[C@H](N)C(=O)N[C@@H](Cc1ccccc1)C(=O)N[C@H](C(=O)N[C@@H](CCC(N)=O)C(=O)N[C@@H](CCCCN)C(=O)O)C(C)C (some centres undefined) [IFVQK]
[1]; [M+2H]2+
  collision cross section (N2): 285.5 Å²
[1]; [M+H]+
  collision cross section (N2): 248.88 Å²

## N[C@@H](CC(=O)O)C(=O)O [L-Aspartic acid]
[1]; [M-H]-
  collision cross section (N2): 120.39 Å²

## NCCCC[C@H](N)C(=O)O [L-Lysine]
[3]; [M+H]+
  collision cross section (N2): 130.7 Å²
[4]; [M+H]+
  collision cross section (N2): 131.8 Å²
[1]; [M+H]+
  collision cross section (N2): 131.62 Å²

## CCCCCCCCCCCC(=O)O [Lauric acid]
[1]; [M-H]-
  collision cross section (N2): 154.82 Å²

## CCC(C)[C@H](NC(=O)CNC(=O)[C@H](C)NC(=O)[C@H](Cc1ccccc1)NC(=O)[C@@H](NC(=O)[C@@H](N)CCSC)C(C)CC)C(=O)N[C@@H](CCCCN)C(=O)O (some centres undefined) [MIFAGIK]
[1]; [M+2H]2+
  collision cross section (N2): 305.66 Å²
[1]; [M+H]+
  collision cross section (N2): 275.34 Å²

## CSC[C@H]1O[C@@H](n2cnc3c(N)ncnc32)[C@H](O)[C@@H]1O [Methylthioadenosine]
[5]; [M+H]+
  collision cross section (N2): 167 Å²

## CC(=O)OC[C@]12C[C@H](O)C(C)=C[C@H]1O[C@@H]1[C@H](O)[C@@H](OC(C)=O)[C@@]2(C)[C@]12CO2 [Neosolaniol]
[2]; [M+NH4]+
  collision cross section (N2): 198 Å²

## CCC(C)C(NC(=O)C(Cc1ccc(O)cc1)NC(=O)C1CCCN1C(=O)C(CCCN=C(N)N)NC(=O)C(CCCN=C(N)N)NC(=O)C1CCCN1C(=O)C(CCCCN)NC(=O)C(CC(N)=O)NC(=O)C(CCC(=O)O)NC(=O)C(Cc1ccc(O)cc1)NC(=O)C(CC(C)C)NC(=O)C1CCC(=O)N1)C(=O)NC(CC(C)C)C(=O)O (centres undefined) [Neurotensin]
[1]; [M+2H]2+
  collision cross section (N2): 434.32 Å²
[1]; [M+3H]3+
  collision cross section (N2): 525.02 Å²

## NCCC[C@H](N)C(=O)O [Ornithine]
[5]; [M+H]+
  collision cross section (N2): 121 Å²

## Nc1ccc(C(=O)O)cc1 [PABA]
[5]; [M+H]+
  collision cross section (N2): 131 Å²

## CCCCCCCCCCCCCCCC(=O)O [Palmitic acid]
[3]; [M+Na]+
  collision cross section (N2): 195 Å²
[3]; [M-H]-
  collision cross section (N2): 167.52 Å²
[1]; [M-H]-
  collision cross section (N2): 169.12 Å²

## CC(C)(CO)[C@@H](O)C(=O)NCCC(=O)O [Pantothenic acid]
[5]; [M+H]+
  collision cross section (N2): 145 Å²

## C=C(C)[C@H]1O[C@H]2CC[C@@]3(C)[C@@](O)(CC[C@H]4[C@@H]5OC(C)(C)[C@H]6C[C@@H]7C(=C)Cc8c(Cl)cc9[nH]c(c5c9c8[C@@]76O)[C@@]43C)[C@]23O[C@@H]3[C@H]1O [Penitrem A]
[2]; [M+H]+
  collision cross section (N2): 253 Å²

## Cc1ncc(CO)c(C(=O)O)c1O [Pyridoxic acid]
[5]; [M+H]+
  collision cross section (N2): 130 Å²

## O=C[C@H](O)[C@H](O)[C@H](O)COP(=O)(O)O [Ribose 5-monophosphate]
[5]; [M+Na]+
  collision cross section (N2): 146 Å²

## CN=C(NC)NCCC[C@H](N)C(=O)O [SDMA]
[5]; [M+H]+
  collision cross section (N2): 142 Å²

## CC(=O)OC[C@]12C[C@H](OC(=O)CC(C)C)C(C)=C[C@H]1O[C@@H]1[C@H](O)[C@@H](OC(C)=O)[C@@]2(C)[C@]12CO2 [T-2 toxin]
[2]; [M+NH4]+
  collision cross section (N2): 214 Å²

## NCCS(=O)(=O)O [Taurine]
[3]; [M+H-H2O]+
  collision cross section (N2): 135.4 Å²
[5]; [M+H]+
  collision cross section (N2): 124 Å²

## CC(C)C[C@@H]1NC(=O)[C@H](C)N(C)C(=O)CNC(=O)/C(=C/c2ccccc2)N(C)C1=O [Tentoxin]
[2]; [M+H]+
  collision cross section (N2): 202 Å²

## CC[C@H](C)[C@@H]1NC(=O)C(C(C)=O)=C1O [Tenuazonic acid]
[2]; [M+H]+
  collision cross section (N2): 135 Å²

## Cc1c[nH]c(=O)[nH]c1=O [Thymine]
[3]; [M+H]+
  collision cross section (N2): 121.9 Å²
[3]; [M-H]-
  collision cross section (N2): 117.39 Å²
[4]; [M+H]+
  collision cross section (N2): 126.14 Å²
[5]; [M+H]+
  collision cross section (N2): 115 Å²

## N[C@@H](Cc1c[nH]c2ccccc12)C(=O)O [Tryptophan]
[5]; [M+H]+
  collision cross section (N2): 145 Å²

## O=c1ccn([C@@H]2O[C@H](COP(=O)(O)O)[C@@H](O)[C@H]2O)c(=O)[nH]1 [UMP]
[5]; [M+Na]+
  collision cross section (N2): 168 Å²

## O=c1[nH]c(=O)c2ncn([C@@H]3O[C@H](CO)[C@@H](O)[C@H]3O)c2[nH]1 [Xanthosine]
[3]; [M+Na]+
  collision cross section (N2): 172.8 Å²
[4]; [M+H]+
  collision cross section (N2): 166.49 Å²
[4]; [M+Na]+
  collision cross section (N2): 177.45 Å²
[5]; [M+H]+
  collision cross section (N2): 158 Å²

## C[C@H]1CCCC(=O)CCC/C=C/c2cc(O)cc(O)c2C(=O)O1 [Zearalenone]
[2]; [M-H]-
  collision cross section (N2): 170 Å²

## Nc1ncnc2c1ncn2[C@@H]1O[C@@H]2COP(=O)(O)O[C@H]2[C@H]1O [cAMP]
[5]; [M+H]+
  collision cross section (N2): 172 Å²

## N[C@@H](CCC(=O)N[C@@H](CS)C(=O)NCC(=O)O)C(=O)O [glutathione]
[5]; [M+H]+
  collision cross section (N2): 165 Å²

## OC[C@H]1O[C@@H](O[C@H]2[C@H](O)[C@@H](O)[C@H](O)O[C@@H]2CO)[C@H](O)[C@@H](O)[C@H]1O [lactose]
[5]; [M+Na]+
  collision cross section (N2): 173 Å²

## OC[C@H]1O[C@H](OC[C@H]2O[C@H](O[C@]3(CO)O[C@H](CO)[C@@H](O)[C@@H]3O)[C@H](O)[C@@H](O)[C@@H]2O)[C@H](O)[C@@H](O)[C@H]1O [raffinose]
[5]; [M+Na]+
  collision cross section (N2): 210 Å²

## OC[C@H]1O[C@@](CO)(O[C@H]2O[C@H](CO)[C@@H](O)[C@H](O)[C@H]2O)[C@@H](O)[C@@H]1O [sucrose]
[5]; [M+Na]+
  collision cross section (N2): 170 Å²

## OC[C@H]1O[C@H](O[C@H]2O[C@H](CO)[C@@H](O)[C@H](O)[C@H]2O)[C@H](O)[C@@H](O)[C@@H]1O [trehalose]
[5]; [M+Na]+
  collision cross section (N2): 173 Å²
